From the NIST ThermoML archive (doi:10.1021/je500275j)

Test: xn = mol fraction of the nth substance listed
Settings: 100 kPa, Liquid; for viscosity: Falling or rolling sphere viscometry; for mass density: Vibrating tube method

C1CCC(C2CCCCC2)CC1 [1,1'-bicyclohexyl] + CC1CCCCC1
Settings	mass density [kg/m3]	viscosity [mPa·s]
293.15 K, x1 = 0.0999	786.65	0.882
293.15 K, x1 = 0.2015	802.4	1.053
293.15 K, x1 = 0.3012	816.38	1.269
293.15 K, x1 = 0.4007	828.96	1.513
293.15 K, x1 = 0.4994	840.4	1.77
293.15 K, x1 = 0.5986	850.98	2.12
293.15 K, x1 = 0.7002	861.06	2.507
293.15 K, x1 = 0.7998	870.05	2.935
293.15 K, x1 = 0.8998	878.51	3.428
293.15 K, x1 = 1	886.39	4.017
298.15 K, x1 = 0.0999	782.49	0.821
298.15 K, x1 = 0.2015	798.27	0.977
298.15 K, x1 = 0.3012	812.39	1.173
298.15 K, x1 = 0.4007	825.06	1.389
298.15 K, x1 = 0.4994	836.55	1.616
298.15 K, x1 = 0.5986	847.21	1.923
298.15 K, x1 = 0.7002	857.36	2.261
298.15 K, x1 = 0.7998	866.41	2.628
298.15 K, x1 = 0.8998	874.87	3.05
298.15 K, x1 = 1	882.79	3.541
303.15 K, x1 = 0.0999	778.28	0.768
303.15 K, x1 = 0.2015	794.17	0.905
303.15 K, x1 = 0.3012	808.39	1.086
303.15 K, x1 = 0.4007	821.14	1.28
303.15 K, x1 = 0.4994	832.74	1.49
303.15 K, x1 = 0.5986	843.46	1.754
303.15 K, x1 = 0.7002	853.63	2.056
303.15 K, x1 = 0.7998	862.73	2.367
303.15 K, x1 = 0.8998	871.23	2.73
303.15 K, x1 = 1	879.19	3.145
308.15 K, x1 = 0.0999	774.06	0.722
308.15 K, x1 = 0.2015	790.07	0.85
308.15 K, x1 = 0.3012	804.38	1.01
308.15 K, x1 = 0.4007	817.21	1.185
308.15 K, x1 = 0.4994	828.85	1.373
308.15 K, x1 = 0.5986	839.63	1.609
308.15 K, x1 = 0.7002	849.8	1.871
308.15 K, x1 = 0.7998	859.05	2.143
308.15 K, x1 = 0.8998	867.6	2.459
308.15 K, x1 = 1	875.6	2.817
313.15 K, x1 = 0.0999	769.83	0.679
313.15 K, x1 = 0.2015	785.95	0.795
313.15 K, x1 = 0.3012	800.36	0.942
313.15 K, x1 = 0.4007	813.28	1.102
313.15 K, x1 = 0.4994	824.98	1.268
313.15 K, x1 = 0.5986	835.85	1.474
313.15 K, x1 = 0.7002	846.15	1.708
313.15 K, x1 = 0.7998	855.37	1.953
313.15 K, x1 = 0.8998	863.97	2.227
313.15 K, x1 = 1	872.01	2.54
318.15 K, x1 = 0.0999	765.59	0.641
318.15 K, x1 = 0.2015	781.82	0.747
318.15 K, x1 = 0.3012	796.34	0.882
318.15 K, x1 = 0.4007	809.35	1.025
318.15 K, x1 = 0.4994	821.14	1.177
318.15 K, x1 = 0.5986	832.06	1.37
318.15 K, x1 = 0.7002	842.45	1.582
318.15 K, x1 = 0.7998	851.7	1.788
318.15 K, x1 = 0.8998	860.35	2.032
318.15 K, x1 = 1	868.43	2.302

C1CCC(C2CCCCC2)CC1 [1,1'-bicyclohexyl] + CCCCC1CCCCC1
Settings	mass density [kg/m3]	viscosity [mPa·s]
293.15 K, x1 = 0.1002	809.11	1.43
293.15 K, x1 = 0.2003	818.37	1.585
293.15 K, x1 = 0.2997	827.41	1.757
293.15 K, x1 = 0.4002	836.41	1.952
293.15 K, x1 = 0.4999	845.11	2.184
293.15 K, x1 = 0.6011	853.76	2.45
293.15 K, x1 = 0.7003	862.14	2.759
293.15 K, x1 = 0.7999	870.34	3.132
293.15 K, x1 = 0.9008	878.53	3.563
293.15 K, x1 = 1	886.39	4.017
298.15 K, x1 = 0.1002	805.38	1.311
298.15 K, x1 = 0.2003	814.66	1.449
298.15 K, x1 = 0.2997	823.71	1.6
298.15 K, x1 = 0.4002	832.69	1.772
298.15 K, x1 = 0.4999	841.44	1.975
298.15 K, x1 = 0.6011	850.11	2.205
298.15 K, x1 = 0.7003	858.51	2.471
298.15 K, x1 = 0.7999	866.72	2.797
298.15 K, x1 = 0.9008	874.92	3.15
298.15 K, x1 = 1	882.79	3.541
303.15 K, x1 = 0.1002	801.64	1.209
303.15 K, x1 = 0.2003	810.94	1.332
303.15 K, x1 = 0.2997	820.01	1.466
303.15 K, x1 = 0.4002	829.01	1.619
303.15 K, x1 = 0.4999	837.77	1.796
303.15 K, x1 = 0.6011	846.46	1.998
303.15 K, x1 = 0.7003	854.87	2.231
303.15 K, x1 = 0.7999	863.09	2.508
303.15 K, x1 = 0.9008	871.31	2.812
303.15 K, x1 = 1	879.19	3.145
308.15 K, x1 = 0.1002	797.9	1.12
308.15 K, x1 = 0.2003	807.21	1.229
308.15 K, x1 = 0.2997	816.31	1.349
308.15 K, x1 = 0.4002	825.32	1.485
308.15 K, x1 = 0.4999	834.1	1.643
308.15 K, x1 = 0.6011	842.81	1.821
308.15 K, x1 = 0.7003	851.24	2.022
308.15 K, x1 = 0.7999	859.47	2.272
308.15 K, x1 = 0.9008	867.7	2.53
308.15 K, x1 = 1	875.6	2.817
313.15 K, x1 = 0.1002	794.15	1.041
313.15 K, x1 = 0.2003	803.48	1.139
313.15 K, x1 = 0.2997	812.6	1.247
313.15 K, x1 = 0.4002	821.64	1.368
313.15 K, x1 = 0.4999	830.43	1.508
313.15 K, x1 = 0.6011	839.15	1.665
313.15 K, x1 = 0.7003	847.6	1.844
313.15 K, x1 = 0.7999	855.85	2.061
313.15 K, x1 = 0.9008	864.1	2.288
313.15 K, x1 = 1	872.01	2.54
318.15 K, x1 = 0.1002	790.39	0.971
318.15 K, x1 = 0.2003	799.75	1.059
318.15 K, x1 = 0.2997	808.89	1.157
318.15 K, x1 = 0.4002	817.94	1.265
318.15 K, x1 = 0.4999	826.76	1.391
318.15 K, x1 = 0.6011	835.5	1.532
318.15 K, x1 = 0.7003	843.97	1.689
318.15 K, x1 = 0.7999	852.23	1.883
318.15 K, x1 = 0.9008	860.5	2.082
318.15 K, x1 = 1	868.43	2.302
